Legend:
Assay type in all cases: physicochemical
[1] = n-octanol/water partitioning study; conditions: room temperature, read-out: Partition coefficient (log P)
Description: Piperlongumine crystals were placed in a small glass bottle containing equal volumes of n-octanol and water. The bottle was shaken for 24 hours, after which time, the bottle was allowed to equilibrate without mixing for an additional 24 hours to ensure full separation between the n-octanol and water layers. A sample from each layer was carefully withdrawn and analyzed by HPLC.

[2] = Aqueous stability studies (pH, temperature, ionic strength)
Description: Aqueous stability studies for piperlongumine were conducted in three buffer systems: citrate (pH 3, 4, and 5); phosphate (pH 5, 6, and 7); and borate (pH 8 and 9). The ionic strength for the solutions was also varied, utilizing approximately 0.2 or 0.5 M. Each buffered sample was prepared with 10% acetonitrile as a cosolvent, then sealed and protected from light. Samples were stored at four different temperatures: 4°C (for samples at pH 3, 8 and 9 only), 26°C, 56°C and 67°C. Aliquots were regularly withdrawn for analysis. Changes in pH, if any, were also monitored. Stability studies were carried out for 18 months or until complete degradation occurred.
Apparent first order degradation was also obtained for the 4, […] and 67°C degradation profiles. Degradation rate constants, k-values, for piperlongumine were calculated using the slopes of the trend lines of each profile.
An Arrhenius plot of log k versus the reciprocal of the temperature (Fig 9) was utilized to determine the length of time it takes for piperlongumine to degrade 50% (T50) and 10% (T90). For a given pH the Arrhenius equation was utilized: Log k = log A − (Ea/2.303 RT) (1) Where: […]

[3] = Photo-stability (UV sunlamps, 165 min); conditions: for Photo-degradation: UV exposure
Description: Photo-stability was examined by preparing four groups of samples, each containing a triplicate sample and one reference (protected from light). These groups covered high and low drug concentrations in the following compositions:
• 150 μg/ml of drug in 100% acetonitrile • 150 μg/ml of drug in 15:85 acetonitrile: water • 30 μg/ml of drug in 100% acetonitrile • 30 μg/ml of drug in 15:85 acetonitrile: water
Each sample was prepared in a transparent glass vial and closed without any entrapped air. A reference sample was utilized for each group by covering one of the vials with aluminum foil to protect it from the light exposure. All vials were exposed for 165 min using Sun 340 sunlamps yielding UV emission between 295 and 390 nm to include UVA and UVB wavelengths. Samples were placed in an area where the UV intensity was measured to be 1.57 mw/cm^2. After the exposure time, samples were analyzed using the HPLC method described previously.

[4] = Additional stability studies with antioxidants, chelator, hydrogen peroxide
Description: The addition of antioxidants such as ascorbic acid and sodium bisulfite and the chelator EDTA were evaluated with the drug at pH 3 (citrate buffer) and pH 7 (phosphate buffer). Samples in phosphate buffer were maintained at 26°C while the samples in citrate buffer were kept at 56°C. All three agents were used at a concentration of 0.05% w/v. Aliquots were withdrawn on a regular basis and pH and drug concentration were monitored. Piperlongumine stability was also examined after the addition of 1.5% w/v hydrogen peroxide in pH 3 citrate buffer at room temperature.

[5] = Solubility studies (excess drug, agitation at least 24 h, HPLC)
[6] = pH 3, citrate, ionic strength 0.2, 25°C
[7] = pH 3, citrate, ionic strength 0.5, 25°C
[8] = pH 5, citrate, ionic strength 0.2, 25°C
[9] = pH 5, phosphate, ionic strength 0.2, 25°C
[10] = pH 5, phosphate, ionic strength 0.5, 25°C
[11] = pH 6, phosphate, ionic strength 0.2, 25°C
[12] = pH 7, phosphate, ionic strength 0.2, 25°C
[13] = pH 8, borate, ionic strength 0.2, 25°C
[14] = pH 9, borate, ionic strength 0.2, 25°C
[15] = pH 9, borate, ionic strength 0.5, 25°C
[16] = citrate, pH 3, 26°C, hydrogen peroxide 1.5% w/v
[17] = citrate, pH 3, 56°C, EDTA 0.05% w/v
[18] = citrate, pH 3, 56°C, ascorbic acid 0.05% w/v
[19] = citrate, pH 3, 56°C, no additional substance
[20] = citrate, pH 3, 56°C, sodium bisulfite 0.05% w/v
[21] = phosphate, pH 7, 26°C, EDTA 0.05% w/v
[22] = phosphate, pH 7, 26°C, ascorbic acid 0.05% w/v
[23] = phosphate, pH 7, 26°C, no additional substance
[24] = phosphate, pH 7, 26°C, sodium bisulfite 0.05% w/v

## COc1cc(/C=C/C(=O)N2CCC=CC2=O)cc(OC)c1OC [piperlongumine, 1-[(2E)-3-(3,4,5-trimethoxyphenyl)prop-2-enoyl]-1,2,5,6-tetrahydropyridin-2-one]
[1]
  logP at 24 h: 2.37 ± 0.12
[2]; 0.2 M vs 0.5 M, pH 9, borate buffer
  Effect of ionic strength on degradation rate: No difference in degradation rate
[2]; 56°C, several pH conditions
  Kinetics of thermal degradation: first order degradation kinetics
[2]; citrate vs phosphate, pH 5
  Effect of buffer species on degradation rate: degradation rates are similar
[2]; increase from approximately 0.2 M to 0.5 M, pH 3 and pH 5
  Effect of ionic strength on stability half-life: nominal effects
[2]; pH 3, citrate, ionic strength 0.2
  Ea: 21.2 kcal/mol
[2]; [6]
  T50 at 25°C: 69.6 weeks
  T90 at 25°C: 10.6 weeks
[2]; pH 3, citrate, ionic strength 0.2, 26°C
  k values 26°C: 0.0110 weeks^-1
[2]; pH 3, citrate, ionic strength 0.2, 56°C
  k values 56°C: 0.3057 weeks^-1
[2]; pH 3, citrate, ionic strength 0.2, 67°C
  k values 67°C: 0.7808 weeks^-1
[2]; pH 3, citrate, ionic strength 0.5
  Ea: 22.1 kcal/mol
[2]; [7]
  T50 at 25°C: 75.4 weeks
  T90 at 25°C: 11.5 weeks
[2]; pH 3, citrate, ionic strength 0.5, 26°C
  k values 26°C: 0.0101 weeks^-1
[2]; pH 3, citrate, ionic strength 0.5, 56°C
  k values 56°C: 0.3413 weeks^-1
[2]; pH 3, citrate, ionic strength 0.5, 67°C
  k values 67°C: 0.8383 weeks^-1
[2]; pH 3 citrate, 26°C, from Table 1
  T90 without hydrogen peroxide: about 9.5 weeks
[2]; pH 4, citrate, ionic strength 0.2
  Ea: 20.3 kcal/mol
[2]; pH 4, citrate, ionic strength 0.2, 25°C
  T50 at 25°C: 112.9 weeks
[2]; pH 4, citrate, ionic strength 0.2, 26°C
  k values 26°C: 0.0067 weeks^-1
[2]; pH 4, citrate, ionic strength 0.2, 56°C
  k values 56°C: 0.1739 weeks^-1
[2]; pH 4, citrate, ionic strength 0.2, 67°C
  k values 67°C: 0.3813 weeks^-1
[2]; pH 5, citrate, ionic strength 0.2
  Ea: 20.7 kcal/mol
[2]; [8]
  T50 at 25°C: 87.6 weeks
  T90 at 25°C: 13.3 weeks
[2]; pH 5, citrate, ionic strength 0.2, 26°C
  k values 26°C: 0.0090 weeks^-1
[2]; pH 5, citrate, ionic strength 0.2, 56°C
  k values 56°C: 0.2045 weeks^-1
[2]; pH 5, citrate, ionic strength 0.2, 67°C
  k values 67°C: 0.6125 weeks^-1
[2]; pH 5, phosphate, ionic strength 0.2
  Ea: 21.5 kcal/mol
[2]; [9]
  T50 at 25°C: 101.5 weeks
  T90 at 25°C: 15.4 weeks
[2]; pH 5, phosphate, ionic strength 0.2, 26°C
  k values 26°C: 0.0076 weeks^-1
[2]; pH 5, phosphate, ionic strength 0.2, 56°C
  k values 56°C: 0.2201 weeks^-1
[2]; pH 5, phosphate, ionic strength 0.2, 67°C
  k values 67°C: 0.5741 weeks^-1
[2]; pH 5, phosphate, ionic strength 0.5
  Ea: 20.3 kcal/mol
[2]; [10]
  T50 at 25°C: 88.7 weeks
  T90 at 25°C: 13.5 weeks
[2]; pH 5, phosphate, ionic strength 0.5, 26°C
  k values 26°C: 0.0090 weeks^-1
[2]; pH 5, phosphate, ionic strength 0.5, 56°C
  k values 56°C: 0.1764 weeks^-1
[2]; pH 5, phosphate, ionic strength 0.5, 67°C
  k values 67°C: 0.5741 weeks^-1
[2]; pH 6, phosphate, ionic strength 0.2
  Ea: 22.7 kcal/mol
[2]; [11]
  T50 at 25°C: 75.5 weeks
  T90 at 25°C: 11.5 weeks
[2]; pH 6, phosphate, ionic strength 0.2, 26°C
  k values 26°C: 0.0108 weeks^-1
[2]; pH 6, phosphate, ionic strength 0.2, 56°C
  k values 56°C: 0.2919 weeks^-1
[2]; pH 6, phosphate, ionic strength 0.2, 67°C
  k values 67°C: 1.1652 weeks^-1
[2]; pH 7, phosphate, ionic strength 0.2
  Ea: 22.5 kcal/mol
[2]; [12]
  T50 at 25°C: 16.0 weeks
  T90 at 25°C: 2.4 weeks
[2]; pH 7, phosphate, ionic strength 0.2, 26°C
  k values 26°C: 0.0506 weeks^-1
[2]; pH 7, phosphate, ionic strength 0.2, 56°C
  k values 56°C: 1.3607 weeks^-1
[2]; pH 7, phosphate, ionic strength 0.2, 67°C
  k values 67°C: 5.1370 weeks^-1
[2]; pH 8, borate, ionic strength 0.2
  Ea: 19.8 kcal/mol
[2]; pH 8, borate, ionic strength 0.2, 4°C
  k values 4°C: 0.0232 weeks^-1
[2]; [13]
  T50 at 25°C: 2.0 weeks
  T90 at 25°C: 0.3 weeks
[2]; pH 8, borate, ionic strength 0.2, 26°C
  k values 26°C: 0.5120 weeks^-1
[2]; pH 8, borate, ionic strength 0.2, 56°C
  k values 56°C: 7.2924 weeks^-1
[2]; pH 8, borate, ionic strength 0.2, 67°C
  k values 67°C: 20.933 weeks^-1
[2]; pH 9, borate, ionic strength 0.2
  Ea: 22.7 kcal/mol
[2]; pH 9, borate, ionic strength 0.2, 4°C
  k values 4°C: 0.1182 weeks^-1
[2]; [14]
  T50 at 25°C: 0.3 weeks
  T90 at 25°C: 0.05 weeks
[2]; pH 9, borate, ionic strength 0.2, 26°C
  k values 26°C: 2.4375 weeks^-1
[2]; pH 9, borate, ionic strength 0.5
  Ea: 22.7 kcal/mol
[2]; pH 9, borate, ionic strength 0.5, 4°C
  k values 4°C: 0.1171 weeks^-1
[2]; [15]
  T50 at 25°C: 0.3 weeks
  T90 at 25°C: 0.05 weeks
[2]; pH 9, borate, ionic strength 0.5, 26°C
  k values 26°C: 2.4372 weeks^-1
[2]; pH degradation rate profile, 26, 56, 67°C
  pH of maximum stability: ~4
[2]; pH values ≥ 7 and 3, various temperatures
  Stability in pH degradation rate profile: significant instability
[2]; stability samples at pH 3, 5 and 8, LC-MS
  Major degradation products: 3,4,5- trimethoxycinnamic acid and piperlongumic acid
[3]; 30 μg/ml, acetonitrile:water 15:85, UV 165 min
  Average % of drug remaining ± SD: 79.0 ± 0.1%
[3]; 30 μg/ml, acetonitrile:water 100:00, UV 165 min
  Average % of drug remaining ± SD: 39.5 ± 0.03%
[3]; 150 μg/ml, acetonitrile:water 15:85, UV 165 min
  Average % of drug remaining ± SD: 82.3 ± 0.6%
[3]; 150 μg/ml, acetonitrile:water 100:00, UV 165 min
  Average % of drug remaining ± SD: 44.5 ± 0.2%
[3]; 15:85 acetonitrile: water
  Photo-degradation: approximately 20%
[3]; light protected control samples, after exposure duration
  Concentration remaining of the initial concentration: 100%
[3]; pure acetonitrile
  Photo-degradation: 60%
[3]; qualitative
  Photo-degradation upon exposure to an ultraviolet light source: marked photo-degradation
[4]; addition of ascorbic acid and EDTA, pH 7 phosphate buffer, vs drug alone
  Effect on the stability profile: did not have a significant effect
[4]; addition of ascorbic acid, pH 3
  Effect on degradation: did not readily affect the degradation
[4]; addition of hydrogen peroxide (oxidizing agent)
  Effect on degradation: does significantly increase degradation
[4]; addition of sodium bisulfite, pH 3 citrate buffer, 56°C, vs drug alone
  Effect on degradation rate: did not affect the degradation rate
[4]; addition of sodium bisulfite, pH 7
  Time of degradation: within a few minutes
[4]; [16]
  T90: 0.3 weeks
  k values: 0.3369 weeks^-1
[4]; [17]
  T90: 0.3 weeks
  k values: 0.3266 weeks^-1
[4]; [18]
  T90: 0.3 weeks
  k values: 0.3706 weeks^-1
[4]; [19]
  T90: 0.3 weeks
  k values: 0.3107 weeks^-1
[4]; [20]
  T90: 0.3 weeks
  k values: 0.3860 weeks^-1
[4]; [21]
  T90: 1.9 weeks
  k values: 0.0559 weeks^-1
[4]; [22]
  T90: 2.3 weeks
  k values: 0.0459 weeks^-1
[4]; [23]
  T90: 2.1 weeks
  k values: 0.0494 weeks^-1
[4]; [24]
  T90: 0.0 weeks
  k values: 3069.8950 weeks^-1
[5]
  Water solubility as a function of pH: does not change as a function of pH

From publication PMC4794209, “Preformulation Studies on Piperlongumine” (PLoS ONE, 2016)
